Source: patent EP0090353A1, “2-Pyridone derivatives, method for their preparation and pharmaceutical compositions containing them” (priority 1982, dated 1983)

Experiments:
Adjuvans Arthritis = experiment: Adjuvant arthritis (method of Pearson); type: in vivo, männliche Ratten eines Wistar-Lewis-Stammes; details: Rattus norvegicus; male Wistar-Lewis rats, oral daily from day 1 to day 5; reduction of paw volume increase vs control; ED50 read graphically from dose-response curve
Text: 1. Adjuvans Arthritis Die Untersuchungen wurden nach der Methode von Pearson durchgeführt (Arthrit. Rheum. 2, 440 (1959)). […] Die zu […] Verbindungen wurden täglich vom 1. bis zum 5. Versuchstag oral appliziert. Tiere einer Kontrollgruppe erhielten nur das Lösungsmittel. Pro Dosierung und in der Kontrollgruppe wurden jeweils 8 […] unbehandelten Kontrollgruppe. Die ED50-Werte wurden graphisch aus […].

gastrale Ulcera = experiment: Gastric ulcerogenic effect; details: ratio of UD50 (gastric ulcers) to ED50 (adjuvant arthritis), rat
Text: Gastrale ulzerogene Wirkung
(§2) Die Untersuchungen erfolgten an jeweils 10 männlichen Sprague-Dawley Ratten im Körpergewicht von 200-300 g. 48 Stunden vor Applikation der zu vergleichenden Verbindungen bis zum Töten der Tiere wurde das Futter entzogen, bei freiem Zugang zum Trinkwasser. Die Ratten wurden 24 Stunden nach oraler Gabe getötet, der Magen entnommen, unter fließendem Wasser gereinigt und auf Schleimhautläsionen inspiziert. Als Ulzera galten alle makroskopisch sichtbaren Läsionen. Bestimmt wurde der Anteil der Tiere mit Ulzera pro dosi und die UD50 nach Lichtfield und Wilcoxon (J. Pharmacol. exp. Ther. 96, 99 (1949)).

[1] = Gastric ulcerogenic effect; details: rat, stomach, po
Text: Gastrale ulzerogene Wirkung
as §2

in vivo = details: rat, in vivo; Sprague-Dawley rats, 6 animals per dose; Litchfield-Wilcoxon; read-out: LD50 akute Toxizität
Text: (§1) Die Bestimmung der akuten Toxizitäten erfolgten in Standardmethoden an Ratten des Sprague-Dawley-Stammes. Pro Dosierung wurden 6 Tiere verwendet. Die LD50-Werte wurden nach Lichtfield und Wilcoxon bestimmt. [drawing 8]

[2] = test system: Ratten des Sprague-Dawley-Stammes; experiment: in vivo; details: ratio of LD50 (acute toxicity) to ED50 (adjuvant arthritis), rat
Text: as §1

Compound	ED50 (Adjuvans Arthritis)	TI(UD50/ED50) therapeutischer Index (gastrale Ulcera)	TD50 at 24 h [1]	LD50 (in vivo)	TI (LD50 /ED50) therapeutischer Index [2]
CC(Oc1cccc(-c2ccccc2)n1)C(=O)O (racemic) [Beisp. 4, DL-2-(6-Phenylpyridin-2-oxy)-propansäure]	20 mg/kg	9	175 mg/kg	–	–
CC(CO)Oc1cccc(-c2ccccc2)n1 (racemic) [Beisp. 9, DL-2-(6-Phenylpyridin-2-oxy)-propanol]	20 mg/kg	11	220 mg/kg	1000 mg/kg	50
CCOC(=O)[C@@H](C)Oc1cccc(-c2ccccc2)n1 [Beisp. 7, D(+)-2-(6-Phenylpyridin-2-oxy)-propansäureethylester]	15 mg/kg	8	125 mg/kg	–	–
COc1ccc2cc([C@H](C)C(=O)O)ccc2c1 [Naproxen, reference compound]	15 mg/kg	–	–	–	–
CC1=C(CC(=O)O)c2cc(F)ccc2/C1=C\c1ccc([S+](C)[O-])cc1 (stereo not drawn) [Sulindac, reference compound]	13 mg/kg	2	26 mg/kg	–	–
